Assay results reported in paper PMC10196118, “Evidence for broad cross-reactivity of the SARS-CoV-2 NSP12-directed CD4^+ T-cell response with pre-primed responses directed against common cold coronaviruses” (Frontiers in Immunology, 2023).

System: pre-cultured PBMCs (NSP12-specific T cells)
Assay: IFN-γ ELISpot with single 15-mer peptides after 11–13 days in vitro peptide-pool T-cell expansion
Type: cell-based, human
Conditions: for peptide-specific response, donor HH-N12-18, post COVID-19 / peptide-specific response, donor HH-N12-34, post COVID-19 / peptide-specific response, donor HH-N12-35, post COVID-19 / peptide-specific response, donor HH-N12-36, post COVID-19 / peptide-specific response, donor HH-N12-37, post COVID-19 / peptide-specific T-cell response, donor HH-N12-18, post COVID-19 / peptide-specific T-cell response, donor HH-N12-34, post COVID-19 / peptide-specific T-cell response, donor HH-N12-35, post COVID-19 / peptide-specific T-cell response, donor HH-N12-36, post COVID-19 / peptide-specific T-cell response, donor HH-N12-37, post COVID-19: sample post COVID-19; for peptide-specific response, donor HH-N12-18, post COVID-19 / peptide-specific response, donor HH-N12-18, pre COVID-19 / peptide-specific response, donor HH-N12-34, post COVID-19 / peptide-specific response, donor HH-N12-34, pre COVID-19 / peptide-specific response, donor HH-N12-35, post COVID-19 / peptide-specific response, donor HH-N12-35, pre COVID-19 / peptide-specific response, donor HH-N12-36, post COVID-19 / peptide-specific response, donor HH-N12-36, pre COVID-19 / peptide-specific response, donor HH-N12-37, post COVID-19 / peptide-specific response, donor HH-N12-37, pre COVID-19: single NSP12 15-mer peptides; for peptide-specific response, donor HH-N12-18, pre COVID-19 / peptide-specific response, donor HH-N12-34, pre COVID-19 / peptide-specific response, donor HH-N12-35, pre COVID-19 / peptide-specific response, donor HH-N12-36, pre COVID-19 / peptide-specific response, donor HH-N12-37, pre COVID-19 / peptide-specific T-cell response, donor HH-N12-18, pre COVID-19 / peptide-specific T-cell response, donor HH-N12-34, pre COVID-19 / peptide-specific T-cell response, donor HH-N12-35, pre COVID-19 / peptide-specific T-cell response, donor HH-N12-36, pre COVID-19 / peptide-specific T-cell response, donor HH-N12-37, pre COVID-19: sample pre COVID-19; for peptide-specific T-cell response, donor HH-N12-18, post COVID-19 / peptide-specific T-cell response, donor HH-N12-18, pre COVID-19 / peptide-specific T-cell response, donor HH-N12-34, post COVID-19 / peptide-specific T-cell response, donor HH-N12-34, pre COVID-19 / peptide-specific T-cell response, donor HH-N12-35, post COVID-19 / peptide-specific T-cell response, donor HH-N12-35, pre COVID-19 / peptide-specific T-cell response, donor HH-N12-36, post COVID-19 / peptide-specific T-cell response, donor HH-N12-36, pre COVID-19 / peptide-specific T-cell response, donor HH-N12-37, post COVID-19 / peptide-specific T-cell response, donor HH-N12-37, pre COVID-19: single NSP12 15-mer peptide, 0 = no response

Sequence	peptide-specific response, donor HH-N12-18, post COVID-19	peptide-specific response, donor HH-N12-18, pre COVID-19	peptide-specific response, donor HH-N12-34, post COVID-19	peptide-specific response, donor HH-N12-34, pre COVID-19	peptide-specific response, donor HH-N12-35, post COVID-19	peptide-specific response, donor HH-N12-35, pre COVID-19	peptide-specific response, donor HH-N12-36, post COVID-19	peptide-specific response, donor HH-N12-36, pre COVID-19	peptide-specific response, donor HH-N12-37, post COVID-19	peptide-specific response, donor HH-N12-37, pre COVID-19	peptide-specific T-cell response, donor HH-N12-18, post COVID-19	peptide-specific T-cell response, donor HH-N12-18, pre COVID-19	peptide-specific T-cell response, donor HH-N12-34, post COVID-19	peptide-specific T-cell response, donor HH-N12-34, pre COVID-19	peptide-specific T-cell response, donor HH-N12-35, post COVID-19	peptide-specific T-cell response, donor HH-N12-35, pre COVID-19	peptide-specific T-cell response, donor HH-N12-36, post COVID-19	peptide-specific T-cell response, donor HH-N12-36, pre COVID-19	peptide-specific T-cell response, donor HH-N12-37, post COVID-19	peptide-specific T-cell response, donor HH-N12-37, pre COVID-19
KLFDRYFKYWDQTYH [compound 57]	0	0	0	0	0	0	0.029	0	0	0	–	–	–	–	–	–	–	–	–	–
LKYDFTEERLKLFDR [compound 55]	0	0	0	0	0	0	0	0	0	0	–	–	–	–	–	–	–	–	–	–
SADAQSFLNRVCGVS [compound 1]	0	0	0	0	0	0	0.037	0	0	0	–	–	–	–	–	–	–	–	–	–
YSDVENPHLMGWDYP [compound 122]	0	0	0	0	0	0	0	0	0	0	–	–	–	–	–	–	–	–	–	–
YFKYWDQTYHPNCVN [compound 58]	0	0	0	0	0	0	0	0.041	0	0.11	–	–	–	–	–	–	–	–	–	–
VYRAFDIYNDKVAGF [compound 7]	0	0	0	0	0	0	0	0	0	0	–	–	–	–	–	–	–	–	–	–
IYNLLKDCPAVAKHD [compound 18]	0	0	0	0	0	0	0	0	0.023	0	–	–	–	–	–	–	–	–	–	–
LVLARKHTTCCSLSH [compound 128]	0	0	0	0	0	0	0	0	0	0	–	–	–	–	–	–	–	–	–	–
FQEKDEDDNLIDSYF [compound 12]	0	0	0	0	0	0	0	0	0	0	–	–	–	–	–	–	–	–	–	–
MILSDDAVVCFNSTY [compound 152]	–	–	–	–	–	–	–	–	–	–	0	0	0	0	0	0	0	0	0	0
LYRNRDVDTDFVNEF [compound 147]	0	0	0	0	0	0	0	0	0	0	–	–	–	–	–	–	–	–	–	–
QFCDAMRNAGIVGVL [compound 39]	0	0	0	0	0	0	0	0	0	0	–	–	–	–	–	–	–	–	–	–
DIYNDKVAGFAKFLK [compound 8]	0	0	0	0	0	0	0	0	0	0	–	–	–	–	–	–	–	–	–	–
PNCVNCLDDRCILHC [compound 60]	0	0	0	0	0	0	0.022	0	0	0	–	–	–	–	–	–	–	–	–	–
RIMASLVLARKHTTC [compound 127]	0	0.031	0	0	0	0.074	0	0	0	0.051	–	–	–	–	–	–	–	–	–	–
VASIKNFKSVLYYQN [compound 156]	–	–	–	–	–	–	–	–	–	–	0	0	0.025	0	0	0	0	0	0	0
LTKPYIKWDLLKYDF [compound 53]	0.021	0.02	0	0	0	0	0	0	0	0	–	–	–	–	–	–	–	–	–	–
